The supplement of paper PMC6045584
± gives the standard deviation of the averaged measurements.

Legend:
[1] = compound: CCn1c(C(=O)N(C2CC2)C2CC2)cc2c3c(ncn3C)c(Nc3cc(C)n(C)n3)nc21; assay: surviving fraction relative to DMSO-only wells; higher = less growth inhibition; conditions: exposure time: 5 days
Outline: (§1)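 Surviving fraction is CellTiter-Glo luminescence divided by the median of wells given DMSO only. For this, log-phase tumour cell lines went into 384-well plates at 250–500 cells per well and, 24 hours later, into five days of continuous inhibitor exposure at 0.5, 1, 5, 10, 50, 100, 500 and 1000 nM. Lines were screened three times and retained only if replicate Pearson r >0.7 and median Z' >0.3.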

[2] = compound: CN1CCN(c2nc(C3=C(c4c[nH]c5ccccc45)C(=O)NC3=O)c3ccccc3n2)CC1 [SOTRASTAURIN/AEB071]; assay: as above; conditions: exposure time: 5 days
Outline: as §1

Row | Test System | surviving fraction ([1]; 0.5 nM) | surviving fraction ([1]; 1 nM) | surviving fraction ([1]; 5 nM) | surviving fraction ([1]; 10 nM) | surviving fraction ([1]; 50 nM) | surviving fraction ([1]; 100 nM) | surviving fraction ([1]; 500 nM) | surviving fraction ([1]; 1000 nM) | surviving fraction ([2]; 0.5 nM) | surviving fraction ([2]; 1 nM) | surviving fraction ([2]; 5 nM) | surviving fraction ([2]; 10 nM) | surviving fraction ([2]; 50 nM) | surviving fraction ([2]; 100 nM) | surviving fraction ([2]; 500 nM) | surviving fraction ([2]; 1000 nM)
1 | SCC47 HEADNECK | 0.86 ± 0.014 | 0.823 ± 0.037 | 0.995 ± 0.094 | 0.968 ± 0.1 | 0.99 ± 0.063 | 1.06 ± 0.072 | 0.88 ± 0.016 | 0.916 ± 0.12 | 1.04 ± 0.046 | 1.12 ± 0.12 | 1.16 ± 0.062 | 1.13 ± 0.14 | 1.06 ± 0.07 | 1.08 ± 0.046 | 1 ± 0.031 | 1.05 ± 0.13
2 | SCC90 HEADNECK | 0.826 ± 0.041 | 0.929 ± 0.046 | 1.05 ± 0.14 | 0.964 ± 0.091 | 0.976 ± 0.04 | 1.01 ± 0.13 | 0.875 ± 0.093 | 0.922 ± 0.061 | 1.05 ± 0.063 | 0.997 ± 0.066 | 0.925 ± 0.099 | 1.01 ± 0.1 | 0.87 ± 0.037 | 0.875 ± 0.028 | 0.708 ± 0.033 | 0.676 ± 0.072
3 | SG27 HEADNECK | 0.996 ± 0.14 | 0.974 ± 0.089 | 1.01 ± 0.067 | 1.01 ± 0.056 | 1.02 ± 0.077 | 1.03 ± 0.11 | 0.915 ± 0.074 | 0.931 ± 0.17 | 1.1 ± 0.093 | 1.11 ± 0.04 | 0.984 ± 0.051 | 0.984 ± 0.1 | 1.13 ± 0.13 | 1.1 ± 0.041 | 1.15 ± 0.058 | 1.26 ± 0.1
4 | SG28 HEADNECK | 1.06 ± 0.11 | 1.05 ± 0.038 | 1.02 ± 0.025 | 1.02 ± 0.046 | 1.13 ± 0.043 | 0.954 ± 0.096 | 0.951 ± 0.081 | 0.95 ± 0.093 | 1.116 ± 0.011 | 1.107 ± 0.0035 | 0.956 ± 0.12 | 1.024 ± 0.0085 | 0.821 ± 0.039 | 0.79 ± 0.14 | 0.8065 ± 0.0078 | 0.843 ± 0.088
5 | SG31 HEADNECK | 1.04 ± 0.069 | 1.02 ± 0.043 | 1.02 ± 0.12 | 0.875 ± 0.1 | 0.949 ± 0.13 | 1.08 ± 0.46 | 0.955 ± 0.16 | 0.961 ± 0.06 | 1.28 ± 0.26 | 1 ± 0.12 | 1.25 ± 0.26 | 1.12 ± 0.23 | 0.935 ± 0.12 | 1.03 ± 0.12 | 1.11 ± 0.12 | 1.14 ± 0.032
6 | SG32 HEADNECK | 0.996 ± 0.081 | 1.17 ± 0.013 | 1.22 ± 0.2 | 1.22 ± 0.25 | 0.95 ± 0.19 | 0.98 ± 0.12 | 1.02 ± 0.24 | 0.86 ± 0.022 | 0.943 ± 0.088 | 1.13 ± 0.18 | 1.09 ± 0.22 | 1.05 ± 0.057 | 0.792 ± 0.084 | 0.698 ± 0.27 | 0.827 ± 0.13 | 0.795 ± 0.08
7 | SG43 HEADNECK | 1.02 ± 0.22 | 1.02 ± 0.15 | 0.746 ± 0.015 | 0.935 ± 0.19 | 1.08 ± 0.27 | 0.767 ± 0.2 | 0.962 ± 0.31 | 0.784 ± 0.22 | 1.21 ± 0.12 | 0.963 ± 0.1 | 0.92 ± 0.087 | 0.761 ± 0.09 | 0.961 ± 0.15 | 1.14 ± 0.21 | 1.31 ± 0.11 | 1.15 ± 0.088
8 | SIHA CERVIX | 0.868 ± 0.064 | 0.906 ± 0.052 | 0.991 ± 0.036 | 0.965 ± 0.041 | 1.04 ± 0.068 | 1.08 ± 0.057 | 0.983 ± 0.11 | 0.91 ± 0.078 | 0.988 ± 0.039 | 1 ± 0.12 | 1.12 ± 0.041 | 1.06 ± 0.1 | 0.935 ± 0.055 | 0.989 ± 0.0056 | 0.944 ± 0.048 | 0.849 ± 0.05
9 | SJSA1 BONE | 1.03 ± 0.041 | 1.01 ± 0.028 | 1.02 ± 0.028 | 1.01 ± 0.057 | 1.06 ± 0.021 | 1.07 ± 0.022 | 1.059 ± 0.007 | 1.05 ± 0.034 | 1.72 ± 0.087 | 1.64 ± 0.046 | 1.64 ± 0.092 | 1.56 ± 0.13 | 0.992 ± 0.068 | 1.13 ± 0.029 | 1.7 ± 0.041 | 0.205 ± 0.018
10 | SKBR3 BREAST | 0.949 ± 0.15 | 1.07 ± 0.11 | 0.955 ± 0.11 | 1.04 ± 0.12 | 1.08 ± 0.12 | 1.1 ± 0.049 | 1.04 ± 0.081 | 0.999 ± 0.14 | 1.12 ± 0.05 | 0.9717 ± 0.0031 | 1 ± 0.068 | 1.07 ± 0.15 | 0.782 ± 0.085 | 0.84 ± 0.11 | 0.818 ± 0.086 | 0.849 ± 0.12
11 | SNU475 LIVER | 0.974 ± 0.012 | 0.957 ± 0.049 | 0.973 ± 0.025 | 0.989 ± 0.026 | 0.979 ± 0.051 | 0.959 ± 0.017 | 0.938 ± 0.0085 | 0.895 ± 0.039 | 0.996 ± 0.06 | 1.04 ± 0.055 | 1.01 ± 0.042 | 1.03 ± 0.034 | 0.9037 ± 0.0085 | 0.873 ± 0.029 | 0.932 ± 0.04 | 0.908 ± 0.046
12 | SUM44 BREAST | 0.98 ± 0.056 | 1 ± 0.0096 | 1.04 ± 0.026 | 0.997 ± 0.086 | 1.03 ± 0.08 | 1.12 ± 0.025 | 1.02 ± 0.068 | 1.01 ± 0.057 | 1.03 ± 0.23 | 1.04 ± 0.21 | 1.13 ± 0.2 | 1.03 ± 0.19 | 0.895 ± 0.057 | 0.962 ± 0.054 | 1.02 ± 0.1 | 1.03 ± 0.092
13 | SUM149 BREAST | 1.04 ± 0.093 | 1.05 ± 0.12 | 1.07 ± 0.059 | 1.06 ± 0.026 | 1.04 ± 0.05 | 1.04 ± 0.16 | 1.06 ± 0.037 | 1.1 ± 0.16 | 0.923 ± 0.17 | 0.901 ± 0.054 | 0.892 ± 0.11 | 0.896 ± 0.088 | 0.932 ± 0.1 | 0.851 ± 0.025 | 0.893 ± 0.062 | 0.882 ± 0.031
14 | SUM149.B1*.S BREAST | 1.05 ± 0.053 | 0.99 ± 0.02 | 1.05 ± 0.014 | 1 ± 0.013 | 1.08 ± 0.045 | 1.11 ± 0.018 | 1.07 ± 0.011 | 1.08 ± 0.033 | 1.11 ± 0.028 | 1.08 ± 0.06 | 1.06 ± 0.093 | 1.07 ± 0.061 | 1.11 ± 0.059 | 1.04 ± 0.024 | 1.04 ± 0.1 | 1.03 ± 0.042
15 | SUM159 BREAST | 1.04 ± 0.063 | 0.972 ± 0.041 | 0.997 ± 0.012 | 0.873 ± 0.2 | 0.95 ± 0.12 | 0.965 ± 0.12 | 0.955 ± 0.13 | 0.959 ± 0.1 | 1.1 ± 0.02 | 1.12 ± 0.028 | 1.11 ± 0.016 | 1.08 ± 0.026 | 1.06 ± 0.021 | 1.09 ± 0.015 | 1.07 ± 0.028 | 1.04 ± 0.021
16 | SYO1 SYNOVIAL | 0.939 ± 0.069 | 0.927 ± 0.055 | 0.951 ± 0.027 | 0.917 ± 0.09 | 1.01 ± 0.051 | 0.97 ± 0.011 | 0.977 ± 0.045 | 0.98 ± 0.017 | 1.02 ± 0.053 | 1.01 ± 0.058 | 1.04 ± 0.063 | 0.991 ± 0.068 | 0.869 ± 0.031 | 0.875 ± 0.021 | 0.891 ± 0.038 | 0.909 ± 0.038
17 | T47D BREAST | 1.02 ± 0.045 | 0.994 ± 0.066 | 1 ± 0.026 | 0.955 ± 0.024 | 1.04 ± 0.02 | 1.05 ± 0.014 | 1.04 ± 0.067 | 1.04 ± 0.006 | 1.03 ± 0.05 | 1.042 ± 0.0044 | 0.988 ± 0.034 | 1.03 ± 0.038 | 1.03 ± 0.05 | 1.05 ± 0.014 | 1.1 ± 0.028 | 1.09 ± 0.022
18 | U2OS BONE | 0.998 ± 0.025 | 1.03 ± 0.029 | 1.05 ± 0.023 | 1.02 ± 0.022 | 1.07 ± 0.053 | 1.077 ± 0.0072 | 1.03 ± 0.011 | 1.05 ± 0.013 | 1.04 ± 0.058 | 1.008 ± 0.0065 | 1.11 ± 0.037 | 1.044 ± 0.0091 | 1.03 ± 0.051 | 1.02 ± 0.045 | 0.939 ± 0.027 | 0.929 ± 0.029
19 | VCAP PROSTATE | 0.98 ± 0.059 | 1.05 ± 0.12 | 1.15 ± 0.09 | 1.03 ± 0.051 | 1.11 ± 0.11 | 1.13 ± 0.18 | 1.06 ± 0.078 | 1.06 ± 0.092 | 1.08 ± 0.18 | 1.01 ± 0.11 | 1.08 ± 0.06 | 1.03 ± 0.096 | 0.883 ± 0.1 | 1.1 ± 0.052 | 0.941 ± 0.085 | 0.931 ± 0.13
20 | VP229 BREAST | 0.983 ± 0.11 | 1.04 ± 0.14 | 1.02 ± 0.21 | 1.06 ± 0.14 | 1.15 ± 0.13 | 1.09 ± 0.12 | 1.23 ± 0.1 | 1.14 ± 0.034 | 1.07 ± 0.054 | 1.23 ± 0.1 | 0.995 ± 0.023 | 1.04 ± 0.13 | 0.952 ± 0.084 | 0.812 ± 0.059 | 0.956 ± 0.13 | 0.856 ± 0.19
21 | YAMATO SYNOVIAL | 1.22 ± 0.059 | 1.21 ± 0.076 | 1.234 ± 0.012 | 1.19 ± 0.027 | 1.4 ± 0.081 | 1.32 ± 0.15 | 1.327 ± 0.0092 | 1.14 ± 0.023 | 1.14 ± 0.068 | 1.23 ± 0.018 | 1.28 ± 0.13 | 1.38 ± 0.11 | 0.962 ± 0.096 | 0.968 ± 0.032 | 0.945 ± 0.024 | 0.96 ± 0.059
22 | ZR751 BREAST | 0.982 ± 0.19 | 0.864 ± 0.032 | 0.877 ± 0.11 | 0.99 ± 0.057 | 0.894 ± 0.095 | 0.8 ± 0.031 | 0.812 ± 0.027 | 0.772 ± 0.12 | 1.19 ± 0.11 | 1.3 ± 0.22 | 1.1 ± 0.15 | 1.16 ± 0.15 | 1.07 ± 0.092 | 1.1 ± 0.039 | 0.983 ± 0.15 | 1 ± 0.12
